Tests used:
[1] = biological target: T1, human adenosine A2a receptor (Homo sapiens (Human), UniProt P29274); experiment: Inhibition of NECA-induced cAMP accumulation in HEK 293 cells; format: cell-based; settings: HEK 293 cells expressing human A2a; 100 nmol/l NECA; mean of four experiments
Method: The compounds of the present invention were tested to assess their capacity to inhibit cAMP accumulation induced by the A2A agonist 5′-N-ethylcarboxamidoadenosine (NECA).
cAMP quantitative determination was performed with an enzyme immunoassay system (cat. RPN2255, Amersham Biosciences) according to manufacturer's instructions. HEK 293 cells, stably expressing the human adenosine A2a receptor gene (PerkinElmer, Boston, Mass., USA, cat. RBHA2AC), were grown in Falcon flasks in DMEM (Cambrex, Verviers, Belgium) supplemented with 10% FBS (Cambrex), 1 mmol/l sodium pyruvate (Sigma-Aldrich, St. Louis, Mo., USA), and 0.4 mg/ml G418 (Sigma-Aldrich) at 37° C. in a 5% CO2 atmosphere. Cells were plated on 96-well dishes at a concentration of 10^3 cells/well 48 hours before test compound exposure. Before cell stimulation with the compounds, cells were treated for 10 min at 37° C. with 0.5 mmol/l of the phosphodiesterase inhibitor Ro 20-1724 (Sigma-Aldrich) and with 2 U/ml of adenosine deaminase (ADA, Sigma-Aldrich). Medium was then changed with fresh medium containing scalar concentrations of test compounds (10^−10-10^−4 mol/l) at 37° C. and, after 10 min, 100 nmol/l NECA was added. cAMP was extracted 20 min after and quantified.
Data were analyzed by nonlinear regression analysis with GraphPad PRISM commercial software. Test compound concentrations causing a half maximal inhibition of control values (IC50 calculated by GraphPad Prism software) was reported (mean±SEM of four independent experiments).

[2] = biological target: T1, human adenosine A2a receptor; experiment: A2a receptor competition binding assay ([3H]ZM241385); settings: membranes of HEK293 cells expressing human A2a; [3H]ZM241385 2 nmol/l; Ki from IC50 by Cheng and Prusoff
Method: HEK293 cells, stably expressing the human adenosine A2a receptor gene (PerkinElmer, Boston, Mass., USA, cat. RBHA2AC), were grown in Falcon flasks in DMEM (Cambrex, Verviers, Belgium) supplemented with 10% FBS (Cambrex), 1 mmol/l sodium pyruvate (Sigma-Aldrich, Saint Louis, Mo., USA), 0.4 mg/ml G418 (Sigma-Aldrich) at 37° C. in a 5% CO2 atmosphere. For radioligand binding experiments, the cells were collected at 80% of confluence, in 5 mmol/l Tris-HCl (Sigma-Aldrich), pH 7.4, containing 2 mmol/l EDTA, counted, washed in PBS (Cambrex), resuspended in incubation buffer A containing 50 mmol/l Tris-HCl, pH 7.4, 10 mmol/l MgCl2 (Sigma-Aldrich) and homogenized using an Ultra Turrax T25. The membranes were centrifuged and homogenized once again and the final pellet was stored at −80° C. until use. Prior to the competition binding assay, the pellet was resuspended in buffer A at the desired protein concentration and membrane suspension was incubated with 2 U/ml adenosine deaminase (ADA, Sigma-Aldrich) for 30 min at 37° C. to remove endogenous adenosine.
The protein concentration of membrane suspension was determined using the Bradford method (Pierce, Rockford, Ill., USA) with bovine albumin as standard. Competition binding experiments were performed by incubating membranes (5-10 μg of protein/sample) with a single concentration of the A2a antagonist [^3H]ZM241385 (Biotrend, Cologne, Germany) (2 nmol/l), in the presence of various concentrations (ranging from 10^−5 to 10^−11 mol/l) of test and reference compounds in 96-well filter plates (MultiScreen system, cat. MAFBN0B10, Millipore, Billerica, Mass., USA) for one h at 4° C. in a total volume of 200 μl/well of appropriate buffer (50 mmol/l Tris-HCl, pH 7.4, 10 mmol/l MgCl2). Nonspecific binding was determined in the presence of 10 μmol/l cold ZM241385 (Tocris, Ellisville, Mo., USA). At the end of incubation, bound and free radioligands were separated by filtering the 96-well filter plates using a Millipore filtration apparatus (MultiScreenHTS vacuum manifold). Filter plates were then washed several times with ice-cold buffer (50 mmol/l Tris-HCl, pH 7.4) and filter-bound radioactivity measured using a MicroBeta counter (PerkinElmer) after addition of 30 μl/well of OptiPhase SuperMix scintillation cocktail (PerkinElmer). Four experiments were performed in triplicate by JANUS® automated workstation (Perkin Elmer).
Data were analyzed by nonlinear regression analysis with GraphPad PRISM commercial software and expressed as IC50, defined as the concentration of compounds that inhibits 50% of [^3H]ZM241385 binding. Inhibitory binding constant (Ki) values were calculated from IC50 values according to the Cheng and Prusoff equation Ki=IC50/(1+[C]/Kd), where [C] is the concentration of the radioligand and Kd its dissociation constant.

[3] = biological target: human adenosine A1 receptor (Homo sapiens (Human), UniProt P30542); experiment: A1 receptor competition binding assay ([3H]DPCPX); settings: membranes of CHO-K1 cells expressing human A1; [3H]DPCPX 1.7 nmol/l; Ki from IC50 by Cheng and Prusoff
Chain of human adenosine A1 receptor (P30542 whole entry): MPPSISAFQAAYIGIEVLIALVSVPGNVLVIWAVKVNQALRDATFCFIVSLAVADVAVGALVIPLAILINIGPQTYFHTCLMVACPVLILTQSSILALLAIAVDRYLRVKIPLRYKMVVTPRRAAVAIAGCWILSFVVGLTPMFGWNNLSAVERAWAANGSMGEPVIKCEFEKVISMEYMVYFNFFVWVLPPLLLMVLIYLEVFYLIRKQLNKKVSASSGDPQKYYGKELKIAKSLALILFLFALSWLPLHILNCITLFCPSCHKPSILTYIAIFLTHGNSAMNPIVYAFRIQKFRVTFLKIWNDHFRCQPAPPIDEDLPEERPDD
Method: Competition binding experiments have been performed incubating membranes from CHO-K1 cells stably transfected with the human adenosine A1 receptor (cat. ES-010-M400UA, Perkin Elmer, Boston, Mass., USA) (5-10 μg of protein/sample) with a single concentration of [3H]DPCPX (1.7 nmol/l) (Perkin Elmer), in the presence of various concentrations (ranging from 10^−5 to 10^−10 M) of cold DPCPX, ST4206 and ST4208 in 96-well filter plates (MultiScreen system, cat #MAFBN0B10, Millipore, Billerica, Mass., USA) for 60 min at 25° C. in a total volume of 200 μL/well of 25 mmol/l Hepes, 5 mmol/L MgCl2, 1 mmol/l CaCl2, 100 mmol/L NaCl, pH 7.4 (all from Sigma-Aldrich). Non-specific binding has been determined in the presence of 250 μmol/l of cold DPCPX (8-cyclopentyl-1,3-dipropylxanthine, Sigma-Aldrich). At the end of incubation, bound and free radioligands have been separated by filtering the 96-well filter plates using a Millipore filtration apparatus (MultiscreenHTS vacuum manifold). Filter plates have been washed several times with ice-cold buffer (50 mmol/l Tris-HCl, pH 7.4) and filter-bound radioactivity measured using a MicroBeta counter (PerkinElmer) after addition of 30 μL/well of OptiPhase SuperMix scintillation cocktail (PerkinElmer).
Data have been analyzed using nonlinear regression with GraphPad PRISM commercial software. Data will be expressed as test compound concentration causing a half maximal inhibition of control values (IC50). Inhibitory binding constant (Ki) values will be calculated from IC50 values, according to the Cheng and Prusoff equation K1=IC50/(1+[C]/Kd), where [C] is the concentration of the radioligand and Kd its dissociation constant.

[4] = system: battery of 51 different receptors; experiment: Selectivity profile: affinity toward a battery of 51 different receptors; format: binding, human; settings: tested at 10 μM
Description: The majority of the 51 assays were human recombinant receptors of the following types: adenosine, adrenergic, cannabinoid, dopamine, GABA, histamine, melatonin, muscarinic, prostanoid and serotonin receptors belonging to non peptide receptors family; angiotensin-II, bradychinin, chemokines, cholecistokinin, endothelin, galanin, melacortin, neurokinin, neuropeptide Y, neurotensin, opioid and opioid like, somatostatin, vasoactive intestinal peptide and vasopressin receptors belonging to peptide receptors family; Ca^2+ channel, K^+ channel and Na^+ channel belonging to the ion channel family and dopamine, norepinephrine and serotonin belonging to the amine transporters receptors family.” These three compounds were tested at a concentration of 10 μM.

[5] = system: haloperidol-induced catalepsy in CD1 mice; experiment: Haloperidol-induced catalepsy mice model; format: in vivo; settings: oral 10, 20 or 40 mg/kg, haloperidol 2 mg/kg i.p., AUC of catalepsy time over 7 h
Method: Haloperidol (2 mg/kg) was injected i.p. to CD1 mice 2.5 h before oral administration of ST3932 or ST4206. The latter were administered at doses of 10, 20 or 40 mg/kg.
Then, each CD1 mouse was gently placed by its forepaws on a wire at a height of 4.5 cm. Catalepsy was measured as the time (expressed in seconds) necessary for the animal to step down with at least one forepaw, with an end point of 60 seconds, time after which the mouse was gently removed from the wire. Then, catalepsy was scored every 60 min for seven h.
All data were expressed both as individual and mean values, plus or minus standard error (Mean±SEM) of catalepsy time in seconds. Statistical analysis was performed using sigma stat program. After calculation of AUC throughout 7 hours, the one-way ANOVA followed by Dunnett's test were used.

6-OHDA lesioned rats = experiment: Enhancement of L-DOPA antiparkinsonian activity, 6-OHDA lesioned rats; format: in vivo, Rats (Sprague Dawley); settings: 10, 20, 40 mg/kg with threshold dose of L-Dopa (6 mg benserazide + 3 mg L-DOPA); 6-OHDA rats
Method: Rats (Sprague Dawley) under chloral hydrate (400 mg/kg) anaesthesia were placed in a Kopf stereotaxic apparatus. Through a stainless steel cannula, 6-OHDA was injected at a rate of 1 μl/min into the left medial forebrain bundle at coordinates A=−2.2, L=+1.5 and V=−7.8, according to the Pellegrino atlas. All rats, including shams, were treated with desipramine (10 mg/kg) 10 min before anaesthesia to prevent damage to noradrenergic neurons.
Two weeks after the 6-OHDA injection, all animals were tested for their contra lateral rotation capacity in response to 30 mg/kg i.p. benserazide followed by 50 mg/kg i.p. of L-Dopa 30 min later. Rats not showing at least 200 contra lateral rotations within the 3 h testing period were eliminated from the study. One week after this test, selected animals were randomized to be enrolled in three studies. Each study involved seven groups of eight animals.
Tested compounds (ST3829, ST3932 and ST4206) were dissolved in a solution containing 10% sucrose and 0.3% Tween 80 in sterile water in order to obtain three different dosage forms (i.e., 10, 20 and 40 mg/kg).
In groups 5, 6 and 7 benserazide was administered first, followed by the tested compound 25 min after and finally by L-DOPA 5 min later.

T1 sequence (P29274 whole entry): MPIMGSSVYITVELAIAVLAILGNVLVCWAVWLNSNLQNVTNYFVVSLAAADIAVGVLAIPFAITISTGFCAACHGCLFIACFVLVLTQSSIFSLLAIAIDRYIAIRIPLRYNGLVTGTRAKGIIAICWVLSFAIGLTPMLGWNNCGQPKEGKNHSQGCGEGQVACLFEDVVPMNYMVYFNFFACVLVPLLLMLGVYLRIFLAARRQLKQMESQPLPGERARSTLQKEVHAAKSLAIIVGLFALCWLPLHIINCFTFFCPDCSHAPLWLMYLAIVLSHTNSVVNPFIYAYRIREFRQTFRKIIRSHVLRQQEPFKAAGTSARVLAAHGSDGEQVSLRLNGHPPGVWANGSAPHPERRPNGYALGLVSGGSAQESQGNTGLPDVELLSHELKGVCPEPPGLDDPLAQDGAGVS

IC50 [1]	Ki [2]	Ki [3]	Compound	affinity toward 51 receptors [4]	antagonism of haloperidol-induced catalepsy [5]	contralateral turning behaviour induced by L-Dopa (6-OHDA lesioned rats)
2120 nM	53 nM	51 nM	Cn1c(-n2nccn2)nc2c(N)nc(CCCCO)nc21 [Example 1, 4-(6-Amino-9-methyl-8[1,2,3]triazol-2-yl-9H-purin-2-yl)butan-1-ol]	none of them demonstrated any substantial affinity		
2320 nM	22 nM	120 nM	CCCC(O)c1nc(N)c2nc(-n3nccn3)n(C)c2n1 (stereo not drawn) [Example 5, 1-(6-Amino-9-methyl-8-[1,2,3]triazol-2-yl-9H-purin-2-yl)butan-1-ol]	none of them demonstrated any substantial affinity		efficacy of ST3829 at increasing the number of contralateral rotation
2920 nM	19 nM	216 nM	CCCC(=O)c1nc(N)c2nc(-n3nccn3)n(C)c2n1 [Example 6, 1-(6-Amino-9-methyl-8-[1,2,3]triazol-2-yl-9H-purin-2-yl)-butan-1-one]			
990 nM	12 nM	197 nM	CC(=O)CCc1nc(N)c2nc(-n3nccn3)n(C)c2n1 [Example 7, 4-(6-Amino-9-methyl-8[1,2,3]triazol-2-yl-9H-purin-2-yl)-butan-2-one]		significantly antagonized haloperidol-induced catalepsy in a dose-dependent manner	increased the contralateral turning behaviour induced by L-Dopa

Compound	IC50 [1]	Ki [2]	Ki [3]	affinity toward 51 receptors [4]	antagonism of haloperidol-induced catalepsy [5]	contralateral turning behaviour induced by L-Dopa (6-OHDA lesioned rats)
CC(O)CCc1nc(N)c2nc(-n3nccn3)n(C)c2n1 (stereo not drawn) [Example 2, 4-(6-Amino-9-methyl-8[1,2,3]triazol-2-yl-9H-purin-2-yl)butan-2-ol]	450 nM	8 nM	27 nM	none of them demonstrated any substantial affinity	significantly antagonized haloperidol-induced catalepsy in a dose-dependent manner	increased the contralateral turning behaviour induced by L-Dopa
C[C@H](O)CCc1nc(N)c2nc(-n3nccn3)n(C)c2n1 [Example 3, (S)-4-(6-Amino-9-methyl-8-[1,2,3]triazol-2-yl-9H-purin-2-yl)butan-2-ol]	260 nM	19 nM				
C[C@@H](O)CCc1nc(N)c2nc(-n3nccn3)n(C)c2n1 [Example 4, (R)-4-(6-Amino-9-methyl-8-[1,2,3]triazol-2-yl-9H-purin-2-yl)butan-2-ol]	420 nM	8 nM				

From US9133197B2, “Oxidated derivatives of triazolylpurines useful as ligands of the adenosine A2A receptor and their use as medicaments” (SIGMA-TAU INDUSTRIE FARMACEUTICHE RIUNITE S.P.A., priority 2009, dated 2015)
